Data taken from US8158641B2, “2-anilino-4-aminoalkyleneaminopyrimidines” (Boehringer Ingelheim International GmbH, priority 2006, dated 2012).

Target: T1, full-length human PKC-α enzyme (Homo sapiens, UniProt P17252)
T1 construct: performed using full-length human PKC-α enzyme (Upstate Biotechnology); purchased Upstate Biotechnology
Test: Assessment of PKC-α Inhibitory Activity (MALDI-TOF kinase assay)
Format: biochemical
Conditions: full-length human PKC-α 0.12 μg/ml; ATP 45 μM; neurogranin 28-43 peptide 22 μM; 30 minute incubation at 24° C.; MALDI-TOF readout
Description: Measurement of PKC-α enzyme activity is performed using full-length human PKC-α enzyme (Upstate Biotechnology) at a final concentration of 0.12 μg/ml in a kinase assay buffer (0.09 mg/ml bovine serum albumin (BSA), 210 μM ethylenediaminetetraacetic acid (EDTA), 360 μM CaCl2, 1 mM Tris-HCl, pH=7.5, 0.5 mM MgCl2, 0.015 mg/ml phosphatidylserine and 0.015 mg/ml diacylglycerol). The reaction is initiated by addition of adenosine triphosphate (ATP; final concentration 45 μM) and a peptide substrate consisting of amino acids 28-43 (Ala-Ala-Lys-Ile-Gln-Ala-Ser-Phe-Arg-Gly-His-Met-Ala-Arg-Lys-Lys) of neurogranin (Promega; final concentration 22 μM). After a 30 minute incubation at 24° C. the reaction is terminated by adding 5 μL of the reaction mixture into 50 μL of MALDI matrix solution (5 mg/ml α-cyano-4-hydroxycinnamic acid in 50% Acetonitrile/H2O, 0.1% TFA, 5 mM ammonium phosphate). Two microliters of the stopped reaction mixture is transferred onto a MALDI-TOF mass spectrometer target plate.
All spectra are collected on an Applied Biosystems 4700 Proteomics Analyzer MALDI-TOF MS equipped with a Nd:YAG laser (355 nm, 3 ns pulse width, 200 Hz repetition rate) in negative ion reflector mode. The system is operated with 4700 Explorer software, version 3.0. Automated acquisition parameters are adjusted to capture and average only those individual spectra within defined success criteria. Specifically, signal intensities for the substrate peptide are set to a minimum threshold of 3000 counts and a maximum intensity of 65,000 counts. This ensured that neither null spectra nor saturated spectra are averaged into the final readout. Between 1000 and 1500 laser shots are averaged for each sample. Data are collected in triplicate from 3 successive days to capture the maximum variability related to preparation of enzyme reaction, transfer of samples to MALDI target plates, data collection, and data extraction.
The isotope cluster areas for each peptide substrate and product peaks are extracted into a Microsoft Excel worksheet from the 10×10 array of spectral data simultaneously using the automated analysis function provided within the 4700 Explore software. The isotope cluster area is defined by the software algorithm based on the molecular weight and the general elemental composition of the peptides. The percent conversion (% C) of substrate to product is calculated as the cluster area of the product (P) divided by the sum of the cluster areas of the substrate (S) and the product multiplied by 100 as represented by the following equation: […]
For dose-dependent inhibition studies, the inhibition is plotted as a % Maximal Activity (% MA). Equation one is a measure of the ratio of product to substrate then solving for the % C. However, to measure inhibition of the enzyme activity, one must measure the degree to which that activity (% C) is curtailed. Thus the dose-dependant inhibition data is plotted as % MA where the maximal activity is the % C measured in control reactions with no inhibitor as represented by the following equation: […]

Row | Compound | IC50 [nM]
1 | CN(C)CCCNc1ccnc(Nc2cccc(Cl)c2)n1 [No. 3, N^2-(3-chlorophenyl)-N^4-[3-(dimethylamino)propyl]pyrimidine-2,4-diamine] | 312
2 | CN(C)CC(C)(C)CNc1ccnc(Nc2cccc(C(F)(F)F)c2)n1 [No. 75, N^4-[3-(dimethylamino)-2,2-dimethylpropyl]-N^2-[3-(trifluoromethyl)phenyl]pyrimidine-2,4-diamine] | 4
3 | CN(C)CCCCNc1ccnc(Nc2cccc(Cl)c2)n1 [No. 81, N^2-(3-chlorophenyl)-N^4-[4-(dimethylamino)butyl]pyrimidine-2,4-diamine] | 0.8
4 | CCN(CC)CCCNc1ccnc(Nc2cccc(Cl)c2)n1 [compound 6] | 1
5 | CN(C)CCCNc1ccnc(Nc2ccc(Cl)c(Cl)c2)n1 [compound 15] | 15
6 | Cc1ccc(Nc2nccc(NCCCN(C)C)n2)cc1Cl [compound 21] | 3
7 | CN(C)CCCNc1ccnc(Nc2cccc(Cl)c2F)n1 [compound 25] | 23
8 | CN(C)CCCNc1ccnc(Nc2ccc(F)c(Cl)c2)n1 [compound 27] | 8
9 | CN(C)CCCNc1ccnc(Nc2ccc(F)c(F)c2)n1 [compound 33] | 65
10 | CN(C)CCCNc1ccnc(Nc2cccc(C(F)(F)F)c2)n1 [compound 39] | 0.5
11 | CN(C)CCCNc1ccnc(Nc2ccc(Cl)c(C(F)(F)F)c2)n1 [compound 45] | 3
12 | COc1cccc(Nc2nccc(NCCCN(C)C)n2)c1 [compound 51] | 14

The next lines start with the values.

Row | IC50 [nM] | Compound
13 | 40 | Cc1cccc(Nc2nccc(NCCCN(C)C)n2)c1 [compound 55]
14 | 93 | Cc1cccc(Nc2nccc(NCCCN(C)C)n2)c1 [compound 58]
15 | 83 | CN(C)CCNc1ccnc(Nc2cccc(Cl)c2)n1 [compound 69]
16 | 12 | CN(C)CCCCNc1ccnc(Nc2cccc(Cl)c2)n1 [compound 81]
17 | 0.4 | CN(C)CCCNc1ccnc(Nc2cccc(-c3ccccc3)c2)n1 [compound 87]
18 | 48 | Cc1nc(-c2cccc(Nc3nccc(NCCCN(C)C)n3)c2)cs1 [compound 105]
